We go through nine compounds from patent publication US6998244B1, “Cloning and expression of a novel 5-HT4 receptor” (Janssen Pharmaceutica N.V., priority 1999, dated 2006).

The pKi is the Ki on a negative log10 scale, so that one unit is a factor of ten. The low end stands for a large Ki, the high end for a small Ki. One may read the Kd as the concentration at which binding is half-saturated. A low value points to a tighter complex. A word on the IC50: it is the midpoint of a concentration-inhibition curve. Low values mean higher potency, high ones lower potency. For orientation: Ki means the dissociation constant of the complex between target and ligand, obtained from inhibition or displacement.

Experiment [1] relates to COS-7 cells transfected with the empty vector. Briefly: cAMP assay, negative control cells. To be noted: stimulation with 10^−6 M of each agonist. In kind it is cell-based. From the text:
Results represent the increase of cAMP after stimulation by agonist since basal level has been removed. […] The efficacy and potency of the different agonists to trigger the cellular response was estimated and compared for the three different variants. […] No difference in the pEC50 was noticed. The cAMP assay has been performed also for COS-7 cells transfected with the empty vector as a negative control.
These experiments were done using the NEN adenylyl cyclase activation flashplate assay, according to the supplier. Cells were removed from the Petri dishes with 3 ml EDTA (0.04% w/v) and resuspended with phosphate buffered saline without Ca^2+ and Mg^2+. The cells were centrifuged at 1500 g for 5 minutes and the supernatants were removed. The pellet was resuspend in stimulation buffer and diluted to a concentration of 10^6 cells/ml, 50 μl thereof were added per well of the flashplate (50000 cells/well). Compounds were diluted in PBS containing 1 mM pargyline and 1 mM paroxetine, and 50 μl of the resulting mixture was added per well, followed by an incubation for 20 minutes at […]. […] The experiment was stopped and a direct cAMP[^125I] detection assay was performed by adding 100 μl of detection mix per well. After incubation for 24 h at room temperature, counting was done in a Topcount (Packard).

The target of experiment [2] is T1, human 5-HT4(a) receptor (Homo sapiens, UniProt Q13639).
T1 construct: expressed in transfected cells; host or cells: COS-7 cells, transient transfection with a pcDNA3 construct
Briefly: Competition with […] [3H]GR113808 binding, membranes of transfected COS-7 cells. To be noted: for pKi / Ki: Human 5-HT4 a receptor in Cos-7 cells, Cheng and Prusoff.

For experiment [3], the target named is T2, human 5-HT4(b) receptor (Homo sapiens, UniProt Q13639).
T2 construct: expressed in transfected cells; host or cells: COS-7 cells, transient transfection with a pcDNA3 construct
Described as above. Particulars: for pKi / Ki: Human 5-HT4 b receptor in Cos-7 cells, Cheng and Prusoff.

Experiment [4] deals with T1, human 5-HT4(a) receptor. Briefly: cAMP formation in transiently transfected COS-7 cells (flashplate assay). Format: cell-based. Particulars: 5-HT4 variant a, n = 5, cAMP formation. The method, then:
(§1) Results represent the increase of cAMP after stimulation by agonist since basal level has been removed. […] The efficacy and potency of the different agonists to trigger the cellular response was estimated and compared for the three different variants.
(§2) These experiments were done using the NEN adenylyl cyclase activation flashplate assay, according to the supplier. Cells were removed from the Petri dishes with 3 ml EDTA (0.04% w/v) and resuspended with phosphate buffered saline without Ca^2+ and Mg^2+. The cells were centrifuged at 1500 g for 5 minutes and the supernatants were removed. The pellet was resuspend in stimulation buffer and diluted to a concentration of 10^6 cells/ml, 50 μl thereof were added per well of the flashplate (50000 cells/well). Compounds were diluted in PBS containing 1 mM pargyline and 1 mM paroxetine, and 50 μl of the resulting mixture was added per well, followed by an incubation for 20 minutes at 370° C. […] After incubation for 24 h at room temperature, counting was done in a Topcount (Packard).
A general note: Cyclic AMP is a second messenger, typically raised through Gs and lowered through Gi signalling.

For experiment [5], the target named is T2, human 5-HT4(b) receptor. The description is as above. Format: cell-based. To be noted: 5-HT4 variant b, n = 8, cAMP formation. As for the experimental part: as §1, §2
The target in experiment [6] is T3, human 5-HT4(h) receptor (Homo sapiens, UniProt Q13639). Briefly: Competition with […] [3H]GR113808 binding, membranes of transfected COS-7 cells. To be noted: for pKi: Human 5-HT4 h receptor in Cos-7 cells, Cheng and Prusoff.
Description: Results are the mean of three independent experiments from three different transfections.
COS-7 cells were grown in DMEM supplemented with 10% fetal calf serum. A large scale plasmid preparation of 5-HT4(h)/pcDNA3 was made using the Qiagen large scale plasmid preparation kit.
The transfected COS-7 cells were cultured on 150 mm Petri dishes and washed twice with ice-cold phosphate-buffered saline. The cells were then scrapped from the plates with a cell scraper, suspended in 50 mM Tris-HCl buffer, pH 7.4, and harvested by centrifugation for 10 min at 16000 g. The pellet was resuspended in 5 mM Tris-HCl, pH 7.4, and homogenized with an Ultra Turax homogenizer; the resulting membranes were collected by centrifugation for 20 min at 25000 g. Membranes were stored at −70° C. in 50 mM Tris-HCl buffer, pH 7.4, at a protein concentration of 1 mg/ml. The Bradford protein assay was used for protein determination with bovine serum albumin as a standard.
The mixture was incubated 1 hour at 25° C.
The target of experiment [7] is T3, human 5-HT4(h) receptor. Briefly: cAMP formation in transiently transfected COS-7 cells (flashplate assay). Further details: expressed in transfected cells; host or cells: COS-7 cells, transient transfection with 5-HT4(h)/pcDNA3. In kind it is cell-based. The method, then:
as §1, §2

The next experiment concerns the target T4, 5-HT4(a) variant (Homo sapiens, UniProt Q13639).
T4 construct: expressed in transfected cells; host or cells: COS-7 cells, transient transfection with a pcDNA3 construct
Briefly: Radioligand saturation binding, membranes of transfected COS-7 cells. From the text:
(§3) In order to compare the pharmacological properties of the 5-HT4(h) variant with those of the previously cloned 5-HT4(a) and b variant, the three corresponding pcDNA3 expression constructs were transiently transfected into COS cells. The receptors were investigated by radioligand binding assays on membrane preparations.

The target of another experiment is T5, 5-HT4(b) variant (Homo sapiens, UniProt Q13639).
T5 construct: expressed in transfected cells; host or cells: COS-7 cells, transient transfection with a pcDNA3 construct
The experiment is described as above.
From the text: as §3

Another experiment concerns the target T6, h 5-HT4(h) (Homo sapiens, UniProt Q13639).
T6 construct: expressed in transfected cells; host or cells: COS-7 cells, transient transfection with 5-HT4(h)/pcDNA3
The description is as above. Particulars: h variant, 3 independent transfections.
From the text: as §3

Experiment [8] relates to COS-7 cells transfected with the vector alone. Briefly: Radioligand binding, negative control cells. Particulars: 3 independent transfections. From the text:
The same result was obtained for the Bmax values found for the high affinity sites of the 2 reference 5-HT receptor variants a and b. […] Results are the mean of three independent transfections.

The mark [9] stands for this setting: 5-HT4 variant h, n = 3, cAMP formation.

Structures are written as SMILES.

T3 sequence (Q13639 1-402 isoform Q13639-6): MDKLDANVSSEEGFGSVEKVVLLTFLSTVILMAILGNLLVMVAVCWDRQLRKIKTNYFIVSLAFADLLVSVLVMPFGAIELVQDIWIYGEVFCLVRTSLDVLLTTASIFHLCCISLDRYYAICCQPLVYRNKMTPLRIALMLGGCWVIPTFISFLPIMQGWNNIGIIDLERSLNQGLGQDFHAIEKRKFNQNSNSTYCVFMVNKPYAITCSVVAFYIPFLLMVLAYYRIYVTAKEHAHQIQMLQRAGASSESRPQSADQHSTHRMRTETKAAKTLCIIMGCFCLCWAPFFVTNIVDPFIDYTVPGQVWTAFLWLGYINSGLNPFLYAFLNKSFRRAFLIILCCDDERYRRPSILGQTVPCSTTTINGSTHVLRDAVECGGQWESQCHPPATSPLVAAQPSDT
T2 sequence (Q13639 whole entry): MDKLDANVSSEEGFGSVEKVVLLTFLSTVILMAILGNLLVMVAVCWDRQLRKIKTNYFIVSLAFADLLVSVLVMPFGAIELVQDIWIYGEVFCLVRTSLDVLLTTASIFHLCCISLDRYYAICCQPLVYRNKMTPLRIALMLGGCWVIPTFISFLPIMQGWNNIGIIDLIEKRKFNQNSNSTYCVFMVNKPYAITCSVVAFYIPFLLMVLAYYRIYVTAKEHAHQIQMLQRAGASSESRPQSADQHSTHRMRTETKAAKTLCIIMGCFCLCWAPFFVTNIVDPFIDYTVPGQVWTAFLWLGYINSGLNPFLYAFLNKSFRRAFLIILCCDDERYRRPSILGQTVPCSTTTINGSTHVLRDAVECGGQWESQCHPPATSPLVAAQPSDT
T1 sequence (Q13639 1-387 isoform Q13639-2): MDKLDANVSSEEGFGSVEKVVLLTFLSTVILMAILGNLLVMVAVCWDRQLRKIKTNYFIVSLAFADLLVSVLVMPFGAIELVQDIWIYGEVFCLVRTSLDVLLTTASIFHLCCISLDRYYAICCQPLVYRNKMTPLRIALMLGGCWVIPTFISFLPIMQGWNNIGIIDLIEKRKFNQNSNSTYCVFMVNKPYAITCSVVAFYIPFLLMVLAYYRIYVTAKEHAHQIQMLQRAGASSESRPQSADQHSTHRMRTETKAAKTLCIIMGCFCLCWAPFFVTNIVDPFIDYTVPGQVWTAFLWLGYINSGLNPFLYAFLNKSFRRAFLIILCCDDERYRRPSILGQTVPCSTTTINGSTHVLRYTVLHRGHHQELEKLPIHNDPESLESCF
T6 sequence (Q13639 1-402 isoform Q13639-6): as the sequence (Q13639 1-402 isoform Q13639-6) above
T4 sequence (Q13639 1-387 isoform Q13639-2): as the sequence (Q13639 1-387 isoform Q13639-2) above

With `COc1cc(N)c(Cl)cc1C(=O)NC1CCN(CCCOc2ccc(F)cc2)CC1OC` (stereo not drawn) [Cisapride], the “increase of the cAMP basal level” value in experiment [1] was “no significant increase”.
Turning to `Cn1cc(C(=O)OCC2CCN(CCNS(C)(=O)=O)CC2)c2ccccc21` [GR113808], the values for the negative-log Ki (pKi) at human 5-HT4(a) receptor [2], on human 5-HT4(b) receptor [3] and on human 5-HT4(h) receptor [6] were 9.54, 9.57 and 9.29, respectively. The results for the “% of 5HT max (+/− SD)” value at human 5-HT4(a) receptor [4], at human 5-HT4(b) receptor [5] and on human 5-HT4(h) receptor [7] (setting [9]) were 0%, 0% and 54.6%, respectively. Besides, the “pEC50 (+/1 SD)” value at human 5-HT4(h) receptor [7] (setting [9]) is reported as 7.95. For the same compound, the “effect at the 5-HT4(h) variant (agonist/antagonist)” value at human 5-HT4(h) receptor [7] (in words) is “agonistic effect”.
For the compound `Cn1cc(C(=O)OCC2CCN(CCNS(C)(=O)=O)CC2)c2ccccc21` [[^3H]GR113808], the Kd at 5-HT4(a) variant was determined as 0.14 nM; on 5-HT4(b) variant, 0.19 nM; on h 5-HT4(h), 0.24 nM. Besides, the specific binding result in experiment [8] is “no specific binding”.
Consider `COc1ccc2[nH]cc(CCN)c2c1` [5-MeOT], for which the figures for the pKi on human 5-HT4(a) receptor [2], at human 5-HT4(b) receptor [3] and on human 5-HT4(h) receptor [6] were 6.08, 6.13 and 6.1, respectively.
Take `COCCCN1CCC(NC(=O)c2cc(Cl)c(N)c3c2OCC3)CC1` [Prucalopride]: the “% of 5HT max (+/− SD)” value amounted to 118% on human 5-HT4(a) receptor [4], 117.36% at human 5-HT4(b) receptor [5] and 95% on human 5-HT4(h) receptor [7] (setting [9]). Moreover, the “increase of the cAMP basal level” value in experiment [1] was “no significant increase”.
Turning to `NCCc1c[nH]c2ccc(O)cc12` [5HT, 5-hydroxytryptamine], the “% of 5HT max (+/− SD)” value at human 5-HT4(a) receptor [4], at human 5-HT4(b) receptor [5] and at human 5-HT4(h) receptor [7] (setting [9]) was 100% in each case. The “increase of the cAMP basal level” value in experiment [1] is recorded as “no significant increase”.
Turning to `CCOc1cc(N)c(Cl)cc1C(=O)NCC1CN(Cc2ccc(F)cc2)CCO1` (stereo not drawn) [Mosapride], the IC50 on human 5-HT4(a) receptor [2] is 331 nM; at human 5-HT4(b) receptor [3], 912 nM; on human 5-HT4(h) receptor [6], 282 nM. The Ki was 195 nM at human 5-HT4(a) receptor [2], 661 nM on human 5-HT4(b) receptor [3] and 141 nM at human 5-HT4(h) receptor [6].
As to `CCCCN1CCC(COC(=O)c2cc(Cl)c(N)c3c2OCCO3)CC1` [SB204070], the values for the pKi at human 5-HT4(a) receptor [2], on human 5-HT4(b) receptor [3] and on human 5-HT4(h) receptor [6] were 10.15, 10.04 and 10.38, respectively.
Take `CCCCCNC(=N)N/N=C/c1c[nH]c2ccc(OC)cc12` [SDZ-HTF919]: the half-maximal inhibitory concentration (IC50) was 8.32 nM on human 5-HT4(a) receptor [2], 12.9 nM on human 5-HT4(b) receptor [3] and 35.5 nM on human 5-HT4(h) receptor [6]. Moreover, the results for the Ki on human 5-HT4(a) receptor [2], at human 5-HT4(b) receptor [3] and on human 5-HT4(h) receptor [6] were 13.8 nM, 8.13 nM and 25.7 nM, respectively.
